In patent publication US20100280231A1, “WHITENING AGENT COMPRISING EQUOL OR ITS SACCHARIDE DERIVATIVE AS AN EFFECTIVE INGREDIENT” (priority 2007, published 2010):
Where two headings read alike, the source gives them in different places.

Tests used:
[1] = test system: skin of the upper arm of volunteers; test: Safety test, application on the upper arm of volunteers; details: 3 parts by weight (equol equivalent) in ethanol/glycerol/water base, 1-cm square, three times a day for three days, five volunteers each, observed for the next week
[2] = test system: skin of the upper arm of volunteers; details: human, in vivo
Mouse B16 melanoma cells = test: Test of whitening effect in vitro (melanin production); assay type: cell-based; parameters: key to Determination of whitening effect: −: Not changed; ±: Slightly whitened; +: A little whitened; ++: Significantly whitened; +++: Completely whitened; details: for Determination of whitening effect: B16 melanoma cells, 4 days; for EC50: Mus musculus, B16, concentration giving half of the melanin production of the negative control, read-out: ED50 (the source's name); for Melanin Production: negative control 73.9
Description: Three equol glycoside preparation prepared in Experiment 1, i.e. the solution containing reaction products (a solution containing 4′-O-α-D-glucopyranosyl-S-equol and 7-O-α-D-glucopyranosyl-S-equol, hereinafter, described as “equol glycoside containing solution”), 4′-O-α-D-glucopyranosyl-S-equol and 7-O-α-D-glucopyranosyl-S-equol, and the equol used in Experiment 1 were used as test samples, and the following experiment was carried out to determine their whitening effect. Mouse B16 melanoma cells suspended in RPMI-1640 medium containing 10 v/v % fetal calf serum (hereinafter, abbreviated as “FCS”) were inoculated into “6-MULTIWELL MICROPLATE” (6-well microplate commercialized by Becton, Dickinson and Company) to give a cell concentration of 4×10^4 cells/well. After the cells were adhered to the bottom of well, the culture supernatant was removed. The cells were admixed with equol or any one of the three equol glycoside samples, diluted with the same medium to give the concentration described in Table 2, and then cultured at 37° C. in an atmosphere of 5 v/v % CO2 for four days. The cells were collected after admixed with trypsin-EDTA, washed once with Dulbecco's PBS (−) (hereinafter, abbreviated as “D-PBS”), and then dissolved in 1N-sodium hydroxide. A part of the solution was used to determine the amount of protein. The above alkaline solution was boiled for 30 minutes and the amount of melanin was measured. […] Also ED50 (the concentration of the test sample giving half of the melanin production in the cell cultured with negative control) is shown in Table 2. The medium alone was used as negative control, and koji acid, which has been used as a whitening substance for external dermatological composition, was used as positive control at the concentration described in Table 2 (0.5 to 2 mM), to evaluate the whitening effect. The evaluation of whitening effect and measurement of melanin, protein and equol glycosides were carried out as follows.
The melanin production was determined by comparing the absorbance at 450 nm (reference 650 nm) of each alkaline solution to that of melanin standard (Sigma Corporation), measured with “MICROPLATE READER M-Vmax” (commercialized by Wako Pure Chemical Industries Co., Ltd.).
The amount of protein was determined by Bradford method using human serum album bumin as standard.
The concentration of equol glycoside in the powdery product used in the following experiments were determined by the same method as used in Experiment 1, based on the molar absorption coefficient of equol measured at UV 280 nm.

[3] = test system: mouse 3T3-L1 cells differentiated into mature cells; test: Test for lipid hydrolysis (glycerol release from mature lipocytes); assay type: cell-based; details: for Enhancing effect on lipid hydrolysis: glycerol per cell protein, 6 hours, control 274, * p < 0.05 vs control
Description: After the culture supernatant of mouse 3T3-L1 cells cultured under the same condition described above was removed, a regular medium containing 5 μg/ml insulin, 0.25 μM dexamethasone and 0.5 mM 3-isobutyl-1-methylxanthin was added by 1 ml/well, and then the cells were cultured for two days to differentiate into mature cells. After the supernatant was removed, the cells were washed with D-PBS three times and cultured with regular medium for 12 days while replacing the medium every two or three days by 1 ml/well. After the supernatant was removed and the cells were washed with D-PBS two times, a solution containing equol or equol glycosides diluted with D-MEM containing 1% bovine serum albumin to give the concentration described in Table 4 was added by 0.25 ml/well, and then the cell was cultured for 6 hours. After the supernatant was collected, the amount of glycerol was measured to determine the amount of the degraded lipid. After the supernatant was removed and the cells were washed with D-PBS three times, D-PBS containing 0.25% Triton X-100 was added to collect the cells, and then the cells were sonicated to give a cell-dissolving solution. The amount of protein of the sonicated cells was measured by Bradford method as in Experiment 3, and the amount of glycerol per cell protein representing degree of lipid degradation was shown in Table 3. The amount of glycerol was measured with “GLYCEROL REGENT A” (glycerol measurement kit commercialized by Zen-Bio, Inc.).

[4] = test system: mouse 3T3-L1 cell line (precursor lipocyte); test: Effect on differentiation of precursor lipocyte into lipocyte (oil red O staining); assay type: cell-based; details: for Concentration enhancing differentiation of precursor lipocyte into mature lipocyte: Table 3, compared to control; for Enhancing effect on differentiation into lipocyte: with 10 μg/ml insulin, 12 days, relative absorbance, control = 100%, * p < 0.05 vs control
Description: It is known that mouse 3T3-L1 cell line (precursor lipocyte) differentiates into mature lipocyte when cultured in the presence of a differentiation inducer, and accumulates oil droplet in the cell according to the progress of differentiation. The mouse 3T3-Li cells were suspended in a medium, which is Dulbecco's MEM medium (hereinafter, abbreviated as “D-MEM”) supplemented with FCS (final concentration of 10 v/v %) and glucose (final concentration of 3 mg/ml), (hereinafter, described as “regular medium”) to give a cell concentration of 2.5×10^4 cells/well, and inoculated to “CELL CULTURE 24-MULTIWELL MICROPLATE” (24-well microplate coated with collagen type 1, commercialized by Becton, Dickinson and Company) by 1 ml/well. After the cells were cultured at 37° C. in an atmosphere of 5 v/v % CO2 for two days, the supernatant was removed and the remaining cells were admixed with a medium containing 10 μg/ml insulin and equol or equol glycosides dissolved in 50% ethanol, to give a concentration in Table 3, by 1 ml/well and then cultured for 12 days while replacing the medium every two or three days. After each well of the plate was washed with “D-PBS” three times, D-PBS containing 10% formalin was added by 0.2 ml/well, and then the cell was placed at 4° C. for one hour for fixation. After the fixing fluid was removed, a staining fluid of oilred O was added by 0.15 ml/well, and allowed to react at ambient temperature for 15 minutes to stain the lipid droplet in 3T3-L1 cell. After the staining fluid was removed, each well was washed with distilled water three times, and then the plate was dried. After the pigment in each well was dissolved in 0.4 ml of isopropanol, the absorbance of the resulting solution was measured at 490. The progress of the cell differentiation was expressed with relative absorbance to the absrobance of the cell cultured with control regarded as 100%.

estrogen-receptor = details: Kenneth D. R. et al., Am. J. Clin. Nutr. 81, 1072-1079 (2005); cited from earlier work

| Compound | Determination of whitening effect (Mouse B16 melanoma cells; sample concentration 5 μM) | Determination of whitening effect (Mouse B16 melanoma cells; sample concentration 10 μM) | Determination of whitening effect (Mouse B16 melanoma cells; sample concentration 20 μM) | Melanin Production (Mouse B16 melanoma cells; sample concentration 5 μM) [μg/mg-cell protein] | Melanin Production (Mouse B16 melanoma cells; sample concentration 10 μM) [μg/mg-cell protein] | Melanin Production (Mouse B16 melanoma cells; sample concentration 20 μM) [μg/mg-cell protein] | Enhancing effect on lipid hydrolysis ([3]; sample 5 μM) | Enhancing effect on lipid hydrolysis ([3]; sample 20 μM) | Enhancing effect on lipid hydrolysis ([3]; sample 80 μM) | Concentration enhancing differentiation of precursor lipocyte into mature lipocyte [4] [µM] | Enhancing effect on differentiation into lipocyte ([4]; sample 5 μM) | Enhancing effect on differentiation into lipocyte ([4]; sample 20 μM) | other results |
| --- | --- | --- | --- | --- | --- | --- | --- | --- | --- | --- | --- | --- | --- |
| OC[C@H]1O[C@H](Oc2ccc([C@@H]3COc4cc(O)ccc4C3)cc2)[C@H](O)[C@@H](O)[C@@H]1O [4′-O-α-D-glucopyranosyl-R-equol] |  |  |  |  |  |  |  |  |  |  |  |  | Condition of the skin after application [1]: no rough dry skin or rubor |
| OCC1O[C@H](Oc2ccc([C@H]3COc4cc(O)ccc4C3)cc2)[C@@H](O)C(O)[C@@H]1O (stereo partly drawn) [4′-O-α-D-glucopyranosyl-S-equol] | + | + | ++ | 57.1 | 55.0 | 48.2 | 272 μg/mg-cell protein | 320* μg/mg-cell protein | 401* μg/mg-cell protein | 80 | 92% | 107% | Condition of the skin after application [2]: no rough dry skin or rubor; EC50 (Mouse B16 melanoma cells): 38.8 µM; Enhancing effect on differentiation into lipocyte ([4]; sample 80 μM): 217* % |
| OC[C@H]1O[C@H](Oc2ccc3c(c2)OC[C@@H](c2ccc(O)cc2)C3)[C@H](O)[C@@H](O)[C@@H]1O [7-O-α-D-glucopyranosyl-R-equol] |  |  |  |  |  |  |  |  |  |  |  |  | Condition of the skin after application [1]: no rough dry skin or rubor |
| OCC1O[C@H](Oc2ccc3c(c2)OC[C@H](c2ccc(O)cc2)C3)[C@@H](O)C(O)[C@@H]1O (stereo partly drawn) [7-O-α-D-glucopyranosyl-S-equol] | + | + | ++ | 54.8 | 48.4 | 43.0 | 265 μg/mg-cell protein | 312* μg/mg-cell protein | 374* μg/mg-cell protein | 80 | 96% | 101% | Condition of the skin after application [2]: no rough dry skin or rubor; EC50 (Mouse B16 melanoma cells): 27.3 µM; Enhancing effect on differentiation into lipocyte ([4]; sample 80 μM): 253* % |
| Oc1ccc(C2COc3cc(O)ccc3C2)cc1 (centres unmarked) [Equol, equol] | ++ | +++ | +++ | 36.8 | 30.7 | 29.8 | 392* μg/mg-cell protein | 679* μg/mg-cell protein | 1119* μg/mg-cell protein | ≥ 5 | 194* % | 430* % | Whitening efficiency compared to positive control (Mouse B16 melanoma cells; equol 5 μM to 20 μM, Table 2): approximately the same as that of 1 mM koji acid; Concentration enhancing degradation of triglyceride accumulated in lipocyte ([3]; Table 3, compared to control): ≥ 5 µM |
| O=c1cc(CO)occ1O [Koji cid, koji acid, reference compound] |  |  |  |  |  |  |  |  |  |  |  |  | Determination of whitening effect (Mouse B16 melanoma cells; sample concentration 1 mM): +; Determination of whitening effect (Mouse B16 melanoma cells; sample concentration 2 mM): ++; Determination of whitening effect (Mouse B16 melanoma cells; sample concentration 4 mM): +++; Melanin Production (Mouse B16 melanoma cells; sample concentration 1 mM): 57.1 μg/mg-cell protein; Melanin Production (Mouse B16 melanoma cells; sample concentration 2 mM): 47.5 μg/mg-cell protein; Melanin Production (Mouse B16 melanoma cells; sample concentration 4 mM): 37.7 μg/mg-cell protein |
| S-equol |  |  |  |  |  |  |  |  |  |  |  |  | Estrogenic activity according to the affinity to the receptor (estrogen-receptor): higher than that of R-equol |
